Here are results for five compounds from US20080261978A1, “Chemokine receptor modulators” (priority 2007, published 2008).

The conditions of data set [1]: cited from earlier work.
Data set [2] concerns T-tropic HIV. As to the kind of experiment: Phenoscreen HIV cellular entry inhibition assay (Monogram Biosciences). As to conditions: Human immunodeficiency virus 1, read-out: IC50 value for viral entry inhibition.

Where only a bound is given, the exact number is not on record here.

Turning to `c1cc(CN2CCCNCCNCCCNCC2)ccc1CN1CCCNCCNCCCNCC1` [AMD3100], the “side effect in clinical study” value in data set [1] is listed as “cardiac-related side effect”.

Consider `O=S(=O)(NC1CCCc2ccccc21)c1ccc(CNCc2ccccn2)cc1` (centres unmarked) [DE, 4-((pyridin-2-ylmethylamino)methyl)-N-(1,2,3,4-tetrahydronaphthalen-1-yl)benzenesulfonamide], for which the IC50 in data set [2] was at most 10 µM.

On to `O=S(=O)(c1ccc(CNCc2ccccn2)cc1)N(Cc1ccccc1)Cc1nc2ccccc2[nH]1` [DH, N-((1H-benzo[d]imidazol-2-yl)methyl)-N-benzyl-4-((pyridin-2-ylmethylamino)methyl)benzenesulfonamide], for which the IC50 in data set [2] was at most 10 µM.

Turning to `O=S(=O)(c1ccc(CNCCCN2CCOCC2)cc1)N(Cc1ccccc1)Cc1ccccc1` [DX, N,N-dibenzyl-4-((3-morpholinopropylamino)methyl)benzenesulfonamide], the IC50 in data set [2] was at most 10 µM.

In the case of `CCNCc1ccc(S(=O)(=O)N(Cc2ccccc2)Cc2ccccc2)cc1` [DZ, N,N-dibenzyl-4-((ethylamino)methyl)benzenesulfonamide], the IC50 in data set [2] is at most 10 µM.
